In patent US6472417B1, “Synergistic pesticidal composition of pyrethroid and N-phenyl-pyrazole” (priority 1994, dated 2002):
Like-named read-outs stand apart in the source and are kept apart here.

Tested on: Coptotermes formosanusus Shiraki
Experiment: Termite control soil treatment test (Japan Wood Preservation Association Standards No. 13, 1987): bored depth, damage by eating, termite control effect
Format: in vivo
Settings: for Bored depth (mm) 14 days later: treated soil layer 1 cm
From the text: In the description of these embodiments, the term “part(s)” means part(s) by weight. The test method of embodiments was in accordance with Japan Wood Preservation Association Standards No. 13, 1987, “Standards for Testing Methods of Termite Controlling Effects and Performance of Termite Controlling Agents for Soil Treatment (I)”.
A testing apparatus was used in which two glass cylinders (each about 5 cm in diameter and about 12 cm in height) are connected at about 2 cm from the bottom with a glass tube about 1.5 cm in diameter and about 10 cm in length (graduated at 5-mm intervals for 5 cm at the center). The one glass cylinder was filled with about 60 g of non-treated soil adjusted to a moisture content of about 25%, and the other glass cylinder was filled with about 0.29 g of filter paper (5.5 mm in diameter). The glass tube was filled, at a thickness of 1 cm, with test soil prepared by mixing 2.4 g of non-treated sandy soil which had passed through a 20-mesh screen and had been dried at 60° C. until a constant weight had been achieved, with 0.45 g of the solution of the test composition of a predetermined concentration, and the mixture was allowed to stand for 3 weeks in a room without weather resistance treatment. The glass tube was connected to the glass cylinders.
In the glass cylinder filled with non-treated soil, 200 workers and 20 soldiers of Coptotermes formosanusus Shiraki were placed, and the testing apparatus was kept at a constant temperature chamber controlled at a temperature of 28° C., and a relative humidity of 70% or higher.
The bored depth (millimeters=mm), damage by eating, and the termite control effect were determined 14 days after insects were put in place, and the effect was evaluated in accordance with the following criteria: […]

[1] = Concentration (%) 0.005, single ingredient
[2] = Concentration (%) 0.01, single ingredient
[3] = Coptotermes, soil, 336 h, read-out: Termite control effect 14 days later
[4] = Concentration (%) 0.025, single ingredient
[5] = Concentration (%) 0.05, single ingredient
[6] = Concentration (%) 0.02, single ingredient
[7] = Concentration (%) 0.1, single ingredient
[8] = Concentration (%) 0.002, single ingredient

Structure (SMILES) | Damage by eating 14 days later [1] | Bored depth (mm) 14 days later [1] [mm] | Damage by eating 14 days later [2] | Bored depth (mm) 14 days later [2] [mm] | pest or weed control at 0.005 % [3] [%] | pest or weed control at 0.01 % [3] [%] | Damage by eating 14 days later [5] | Bored depth (mm) 14 days later [5] [mm] | pest or weed control at 0.05 % [3] [%] | Damage by eating 14 days later [6] | Bored depth (mm) 14 days later [6] [mm] | also measured
Cc1c(COC(=O)[C@@H]2[C@H](/C=C(\Cl)C(F)(F)F)C2(C)C)cccc1-c1ccccc1 (racemic) [Bifenthrin, 2-methylbiphenyl-3-yl-methyl (Z)-1RS,3RS)-3-(2-chloro-3,3,3-trifluoroprop-1-enyl)-2-2-dimnethylcyclopropane carboxylate] | +++ (51% or more compared with non-treatment) | >10 | +++ (51% or more compared with non-treatment) | >10 | < 49 | < 49 | – | – | – | – | – | –
CC1(C)[C@H](C(=O)O[C@@H](C#N)c2ccc(F)c(Oc3ccccc3)c2)[C@@H]1C=C(Cl)Cl (racemic) [Cyfluthrin, (RS)-a-cyano-4-fluoro-3-phenoxybenzyl (1RS, 3RS)-(1RS, 3RS)-3-(2,2-dichlorovinyl)-2,2-dimethylcyclopropane carboxylate] | +++ (51% or more compared with non-treatment) | >10 | – | – | – | – | – | – | – | – | – | Termite control effect 14 days later [1]: D (49% lethal or less); Damage by eating 14 days later [4]: None; Termite control effect 14 days later [4]: D (49% lethal or less); Bored depth (mm) 14 days later [4]: >10 mm
CC1(C)C(C=C(Cl)Cl)C1C(=O)OC(C#N)c1cccc(Oc2ccccc2)c1 (racemic) [Cypermethrin, (RS)-a-cyano-3-phenoxybenzyl (1RS,3RS)-(1RS,3SR)-3-(2,2-dichlorovinyl)-2,2-dimethylcyclopropane carboxylate] | +++ (51% or more compared with non-treatment) | >10 | – | – | < 49 | – | – | – | – | – | – | Damage by eating 14 days later [4]: None; Bored depth (mm) 14 days later [4]: >10 mm; pest or weed control at 0.025 % [3]: < 49%
CC(C)C(C(=O)OC(C#N)c1cccc(Oc2ccccc2)c1)c1ccc(Cl)cc1 (racemic) [Fenvalerate, (RS)-a-cyano-3-phenoxybenzyl (RS)-2-(4-chlorophenyl)-3-methylbutanoate] | – | – | +++ (51% or more compared with non-treatment) | >10 | – | < 49 | + (10% or less compared with non-treatment) | >10 | 100 | – | – | –
CC1(C)C(C=C(Cl)Cl)C1C(=O)OCc1cccc(Oc2ccccc2)c1 (racemic) [Permethrin, 3-phenoxybenzyl (1RS,3RS)-(1RS,3RS)-(2,2-dichlorovinyl)-2,2-diimethylcyclopropane carboxylate] | – | – | – | – | – | – | – | – | – | +++ (51% or more compared with non-treatment) | >10 | Damage by eating 14 days later [7]: None; Bored depth (mm) 14 days later [7]: >10 mm; pest or weed control at 0.02 % [3]: < 49%; pest or weed control at 0.1 % [3]: < 49%
N#Cc1nn(-c2c(Cl)cc(C(F)(F)F)cc2Cl)c(N)c1[S+]([O-])C(F)(F)F (stereo not drawn) [Compound A, 5-amino-3-cyano-1-(2,6-dichloro-4-trifluoromethylphenyl)-4-trifluoromethylsulphinylpyrazole] | ++ (11-50% or less compared with non-treatment) | >10 | + (10% or less compared with non-treatment) | >10 | 100 | 100 | – | – | – | + (10% or less compared with non-treatment) | >10 | pest or weed control at 0.02 % [3]: 100%
CCOc1ccc(C(C)(C)COCc2cccc(Oc3ccccc3)c2)cc1 [Ethofenprox, 2-(4-ethoxyphenyl)-2-methylpropyl-3-phenoxybenzyl ether] | – | – | – | – | – | – | – | – | – | +++ (51% or more compared with non-treatment) | >10 | Termite control effect 14 days later [6]: D (49% lethal or less); Damage by eating 14 days later [7]: None; Termite control effect 14 days later [7]: D (49% lethal or less); Bored depth (mm) 14 days later [7]: >10 mm
CC(C)[C@H](Nc1ccc(C(F)(F)F)cc1Cl)C(=O)OC(C#N)c1cccc(Oc2ccccc2)c1 (stereo partly drawn) [Fluvalinate] | – | – | – | – | – | – | +++ (51% or more compared with non-treatment) | >10 | < 49 | – | – | –
CCOc1ccc([Si](C)(C)CCCc2ccc(F)c(Oc3ccccc3)c2)cc1 [Silafluofen, 4-ethoxyphenyl-[3-(3-phenoxy-4-fluorophenyl)propyl](dimnethyl)silane] | – | – | +++ (51% or more compared with non-treatment) | >10 | – | < 49 | + (10% or less compared with non-treatment) | >10 | 100 | – | – | –
CC1(C)[C@H](C(=O)O[C@H](C#N)c2cccc(Oc3ccccc3)c2)[C@@H]1C(Br)C(Br)(Br)Br (stereo partly drawn) [Tralomethrin, (S)-a-cyano-3-phenoxybenzyl (1R,3S)-2,2-dinethyl-3-(1,2,2,2-tetrabromoethyl)cyclopropane carboxylate] | – | – | +++ (51% or more compared with non-treatment) | >10 | – | – | – | – | – | – | – | Damage by eating 14 days later [8]: +++ (51% or more compared with non-treatment); Bored depth (mm) 14 days later [8]: >10 mm; pest or weed control at 0.002 % (Coptotermes, soil, 336 h, Concentration (%) 0.002, single ingredient, read-out: Termite control effect 14 days later): < 49%; pest or weed control at 0.01 % (Coptotermes, soil, 336 h, Concentration (%) 0.01, single ingredient, read-out: Termite control effect 14 days later): < 49%
